In US20170037028A1 (BAYER PHARMA AKTIENGESELLSCHAFT, priority 2013, published 2017):

target: T1, GLUT1 (Homo sapiens, UniProt P11166); test: Indirect measurement of GLUT1 activity by quantification of intracellular ATP levels (glucose induced ATP increase); assay type: cell-based; design: endogenous in cells; host or cells: DLD1 or CHO-K1; conditions: DLD1 cells; 0.1 mM glucose, 1 μM Rotenone, 15 min; CellTiter-Glo ATP readout; IC50 values standardized to cytochalasin B IC50 values; read-out: IC50 regarding glucose induced ATP increase (GLUT1 inhibition)
T1 sequence (P11166 1-492): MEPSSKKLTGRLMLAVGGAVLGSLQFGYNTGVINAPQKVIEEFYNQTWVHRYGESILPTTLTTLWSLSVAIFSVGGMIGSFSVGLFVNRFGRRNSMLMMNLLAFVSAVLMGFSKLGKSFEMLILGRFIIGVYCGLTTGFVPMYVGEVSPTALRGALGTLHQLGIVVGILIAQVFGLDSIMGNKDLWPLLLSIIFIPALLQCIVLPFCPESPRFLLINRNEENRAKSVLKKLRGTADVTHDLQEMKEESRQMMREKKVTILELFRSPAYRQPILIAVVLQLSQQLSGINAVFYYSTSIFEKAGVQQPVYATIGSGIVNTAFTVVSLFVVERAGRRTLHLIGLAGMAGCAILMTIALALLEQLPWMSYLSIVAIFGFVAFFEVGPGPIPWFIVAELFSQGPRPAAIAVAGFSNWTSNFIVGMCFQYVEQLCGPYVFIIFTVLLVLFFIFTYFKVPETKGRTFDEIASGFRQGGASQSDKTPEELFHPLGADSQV
How it was run: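 Intracellular ATP was measured by CellTiter-Glo luminescence as an indirect readout of transport: glucose-driven for GLUT1, fructose-driven for GLUT2. DLD1 or CHO-K1 cells were used alongside an oxidative phosphorylation inhibitor. Beforehand, cells were held overnight in glucose-free 1% FCS medium to deplete ATP.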

| Compound | IC50 [nM] |
| --- | --- |
| Cc1c(NC(=O)c2cc(C(N)=O)nc3cc(F)ccc23)c(C(F)(F)F)nn1Cc1cc(C#N)no1 [Example 1669] | 88.8 |
| Cc1c(NC(=O)c2cc(C(N)=O)nc3cc(F)ccc23)c(C(F)(F)F)nn1Cc1ccccc1OC(F)(F)F [Example 1703] | 387 |

same assay, conditions: read-out: IC50 regarding glucose induced ATP increase (GLUT1 inhibition)

| IC50 [nM] | Compound |
| --- | --- |
| 3.8 | COc1cc(Cn2nc(C(F)(F)F)c(NC(=O)c3cc(C(N)=O)nc4cccc(F)c34)c2C)ccc1C#N [Example 1665] |
| 0.8 | COc1cc(Cn2nc(C(F)(F)F)c(NC(=O)c3cc(C(N)=O)nc4cc(F)c(Cl)cc34)c2C)ccc1C#N [Example 1666] |
| 46.6 | Cc1c(NC(=O)c2cc(C(N)=O)nc3ccccc23)c(C(F)(F)F)nn1Cc1ccc(C(C)(C)C#N)cc1 [Example 1667] |
| 23.6 | Cc1c(NC(=O)c2cc(C(N)=O)nc3cc(F)ccc23)c(C(F)(F)F)nn1Cc1ccc(C#N)cc1O [Example 1668] |
| 17.1 | CCOC(=O)c1cc(Cn2nc(C)c(NC(=O)c3cc(C(N)=O)nc4cc(F)ccc34)c2C)on1 [Example 1670] |
| 149 | Cc1c(NC(=O)c2cc(C(N)=O)nc3ccccc23)c(C(F)(F)F)nn1CC(=O)Nc1ccccc1O [Example 1671] |
| 151 | Cc1c(NC(=O)c2cc(C(N)=O)nc3ccccc23)c(C(F)(F)F)nn1Cc1cc(C#N)no1 [Example 1672] |
| 56.1 | Cc1c(NC(=O)c2cc(C(N)=O)nc3cc(F)c(Cl)cc23)c(C(F)(F)F)nn1Cc1cc(C#N)no1 [Example 1673] |
| 21 | Cc1c(NC(=O)c2cc(C(N)=O)nc3cc(F)ccc23)c(C(F)(F)F)nn1Cc1csc(C#N)n1 [Example 1674] |
| 81.8 | Cc1c(NC(=O)c2cc(C(N)=O)nc3cc(F)c(Cl)cc23)c(C(F)(F)F)nn1Cc1cc(CN2CCOCC2)on1 [Example 1676] |
| 353 | CCOC(=O)c1cc(Cn2nc(C(F)(F)F)c(NC(=O)c3cc(C(N)=O)nc4cc(F)ccc34)c2C)on1 [Example 1677] |
| 57.7 | Cc1c(NC(=O)c2cc(C(N)=O)nc3cc(F)ccc23)c(C(F)(F)F)nn1Cc1nc2ccccc2o1 [Example 1678] |
| 18.6 | Cc1c(NC(=O)c2cc(C(N)=O)nc3ccccc23)c(C(F)(F)F)nn1Cc1ccc(C#N)s1 [Example 1679] |
| 146 | COC(=O)c1coc(Cn2nc(C(F)(F)F)c(NC(=O)c3cc(C(N)=O)nc4ccccc34)c2C)n1 [Example 1680] |
| 86.7 | COC(=O)c1coc(Cn2nc(C(F)(F)F)c(NC(=O)c3cc(C(N)=O)nc4cc(F)ccc34)c2C)n1 [Example 1681] |
| 36.7 | COC(=O)c1coc(Cn2nc(C(F)(F)F)c(NC(=O)c3cc(C(N)=O)nc4cc(F)c(Cl)cc34)c2C)n1 [Example 1682] |
| 109 | CCOC(=O)c1cc(Cn2nc(C(F)(F)F)c(NC(=O)c3cc(C(N)=O)nc4cc(F)c(Cl)cc34)c2C)on1 [Example 1683] |
| 721 | Cc1c(NC(=O)c2cc(C(N)=O)nc3ccccc23)c(C(F)(F)F)nn1Cc1nc(C(=O)O)co1 [Example 1684] |
| 1290 | Cc1c(NC(=O)c2cc(C(N)=O)nc3cc(F)c(Cl)cc23)c(C(F)(F)F)nn1Cc1nc(C(=O)O)co1 [Example 1686] |
| 128 | Cc1c(NC(=O)c2cc(C(N)=O)nc3cc(F)ccc23)c(C(F)(F)F)nn1Cc1cccc(C#N)n1 [Example 1687] |
| 86.8 | Cc1c(NC(=O)c2cc(C(N)=O)nc3cccc(F)c23)c(C(F)(F)F)nn1Cc1cccc(C#N)n1 [Example 1688] |
| 30.9 | Cc1c(NC(=O)c2cc(C(N)=O)nc3cc(F)c(Cl)cc23)c(C(F)(F)F)nn1Cc1cccc(C#N)n1 [Example 1689] |
| 353 | Cc1c(NC(=O)c2cc(C(N)=O)nc3ccccc23)c(C(F)(F)F)nn1Cc1cccc(C#N)n1 [Example 1690] |
| 556 | Cc1nn(CC(=O)Nc2cccc(C#N)c2)c(C)c1NC(=O)c1cc(C(N)=O)nc2ccccc12 [Example 1691] |
| 208 | Cc1nn(CC(=O)Nc2ccc(F)cc2)c(C)c1NC(=O)c1cc(C(N)=O)nc2ccccc12 [Example 1692] |

| IC50 [nM] | Compound |
| --- | --- |
| 43.6 | Cc1nn(CC(=O)N(C)c2ccc(F)cc2)c(C)c1NC(=O)c1cc(C(N)=O)nc2ccccc12 [Example 1693] |
| 1.2 | Cc1cc(Cn2nc(C(F)(F)F)c(NC(=O)c3cc(C(N)=O)nc4cccc(F)c34)c2C)ccc1C#N [Example 1694] |
| 4.7 | Cc1cc(Cn2nc(C(F)(F)F)c(NC(=O)c3cc(C(N)=O)nc4cc(F)ccc34)c2C)ccc1C#N [Example 1695] |
| 0.9 | Cc1cc(Cn2nc(C)c(NC(=O)c3cc(C(N)=O)nc4cc(F)c(Cl)cc34)c2C)ccc1C#N [Example 1696] |
| 0.5 | Cc1cc(Cn2nc(C)c(NC(=O)c3cc(C(N)=O)nc4cccc(F)c34)c2C)ccc1C#N [Example 1697] |
| 1.2 | Cc1cc(Cn2nc(C)c(NC(=O)c3cc(C(N)=O)nc4cc(F)ccc34)c2C)ccc1C#N [Example 1698] |
| 11.3 | Cc1ccc(C#N)c(Cn2nc(C)c(NC(=O)c3cc(C(N)=O)nc4cc(F)c(Cl)cc34)c2C)c1 [Example 1699] |
| 38.6 | Cc1ccc(C#N)c(Cn2nc(C(F)(F)F)c(NC(=O)c3cc(C(N)=O)nc4cc(F)ccc34)c2C)c1 [Example 1700] |
| 165 | Cc1nn(CC(=O)Nc2cccc(F)c2)c(C)c1NC(=O)c1cc(C(N)=O)nc2ccccc12 [Example 1701] |
| 140 | Cc1c(NC(=O)c2cc(C(N)=O)nc3ccccc23)c(C(F)(F)F)nn1Cc1cc(CN2CCOCC2)on1 [Example 1702] |
| 110 | Cc1c(NC(=O)c2cc(C(N)=O)nc3cc(F)c(Cl)cc23)c(C(F)(F)F)nn1Cc1ccccc1OC(F)(F)F [Example 1704] |
| 172 | Cc1c(NC(=O)c2cc(C(N)=O)nc3ccccc23)c(C(F)(F)F)nn1Cc1ccccc1OC(F)(F)F [Example 1705] |
| 616 | Cc1c(NC(=O)c2cc(C(N)=O)nc3cccc(F)c23)c(C(F)(F)F)nn1Cc1ccccc1OC(F)(F)F [Example 1706] |
| 124 | Cc1nn(Cc2cccc(C#N)n2)c(C)c1NC(=O)c1cc(C(N)=O)nc2cc(F)ccc12 [Example 1707] |
| 147 | Cc1nn(Cc2cccc(C#N)n2)c(C)c1NC(=O)c1cc(C(N)=O)nc2ccccc12 [Example 1708] |
| 28.1 | Cc1nn(Cc2cccc(C#N)n2)c(C)c1NC(=O)c1cc(C(N)=O)nc2cccc(F)c12 [Example 1709] |
| 3.8 | Cc1cc(F)ccc1Cn1nc(C(F)(F)F)c(NC(=O)c2cc(C(N)=O)nc3cc(F)ccc23)c1C [Example 1710] |
| 4.4 | Cc1cc(F)ccc1Cn1nc(C(F)(F)F)c(NC(=O)c2cc(C(N)=O)nc3cccc(F)c23)c1C [Example 1711] |
| 6.5 | Cc1cc(F)ccc1Cn1nc(C(F)(F)F)c(NC(=O)c2cc(C(N)=O)nc3cc(F)c(Cl)cc23)c1C [Example 1712] |
| 5 | Cc1cc(F)ccc1Cn1nc(C(F)(F)F)c(NC(=O)c2cc(C(N)=O)nc3ccccc23)c1C [Example 1713] |
| 6.4 | Cc1c(NC(=O)c2cc(C(N)=O)nc3cc(F)ccc23)c(C(F)(F)F)nn1Cc1ccc(CC(F)(F)F)cc1 [Example 1714] |
| 1.5 | Cc1c(NC(=O)c2cc(C(N)=O)nc3cccc(F)c23)c(C(F)(F)F)nn1Cc1ccc(CC(F)(F)F)cc1 [Example 1715] |
| 3 | Cc1c(NC(=O)c2cc(C(N)=O)nc3cc(F)c(Cl)cc23)c(C(F)(F)F)nn1Cc1ccc(CC(F)(F)F)cc1 [Example 1716] |
| 2.5 | Cc1c(NC(=O)c2cc(C(N)=O)nc3ccccc23)c(C(F)(F)F)nn1Cc1ccc(CC(F)(F)F)cc1 [Example 1717] |
